Consider one molecule from patent US8471063B2, “Michael systems as transglutaminase inhibitors” (Zedira GmbH, priority 2006, dated 2013).

The term IC50 denotes the concentration at which inhibition is half-maximal.

Where a SMILES comes first, the peptide text is derived from it. [ ]: non-standard residue; d: D form. The star is where a group is joined. Nle(5E-ene,6-CO2Et) = CCOC(=O)/C=C/CC[C@H](N)C(=O)O; Cbz = O=C(OCc1ccccc1)*

Test [1] concerns biopsies from the lower duodenum of patients suffering from coeliac disease. The experiment in a line: Biopsy example 2: interferon-γ ELISA of PT gliadin stimulated duodenal biopsies. The note with it: 5 μM inhibitor preincubation, PT gliadin stimulation. The class given is cell-based, human. As for the experimental part:
(§1) Biopsies with a diameter of about 2 mm were stored for a maximum of 30 min in ice-cold PBS after removal from the lower duodenum of patients suffering from coeliac disease. The single biopsies were transferred into the cavities of a 24-well cell culture dish and coated with 500 μl of Trowell T8 medium.
For preincubation, the transglutaminase inhibitor (1) in a final concentration of 5 μM was added to the biopsies and they were incubated for 30 min at a temperature of 37° C. in the incubator under gassing with CO2 (5%). Subsequently, stimulation with gliadin after peptic-tryptic digest (PT gliadin) used in a final concentration of 1 mg/ml was performed. PT gliadin was produced as described by Wieser and Belitz (Wieser H and Belitz HD (1992), Z Lebenm Unters Forsch 194: 229-234). The treatment with the proteases pepsin and trypsin simulates the digestion in the gastrointestinal tract. […]
Biopsies were cultivated and treated as described in biopsy example 1. After 24 and 48 hrs, 50 μl samples were taken both from the biopsy stimulated with PT gliadin and from the biopsy preincubated with inhibitor (1), which subsequently was also stimulated with PT gliadin and the samples were analyzed by means of an interferon-γ Elisa. A very high interferon-γ value of 653 pg/ml could already be measured in the biopsy stimulated with PT gliadin after 24 hrs, which value increased to 1177 pg/ml after 48 hrs.

Test [2] deals with T1, recombinant human tissue transglutaminase (His6-rh-TG2) (Homo sapiens, UniProt P21980).
T1 sequence (P21980 1-687): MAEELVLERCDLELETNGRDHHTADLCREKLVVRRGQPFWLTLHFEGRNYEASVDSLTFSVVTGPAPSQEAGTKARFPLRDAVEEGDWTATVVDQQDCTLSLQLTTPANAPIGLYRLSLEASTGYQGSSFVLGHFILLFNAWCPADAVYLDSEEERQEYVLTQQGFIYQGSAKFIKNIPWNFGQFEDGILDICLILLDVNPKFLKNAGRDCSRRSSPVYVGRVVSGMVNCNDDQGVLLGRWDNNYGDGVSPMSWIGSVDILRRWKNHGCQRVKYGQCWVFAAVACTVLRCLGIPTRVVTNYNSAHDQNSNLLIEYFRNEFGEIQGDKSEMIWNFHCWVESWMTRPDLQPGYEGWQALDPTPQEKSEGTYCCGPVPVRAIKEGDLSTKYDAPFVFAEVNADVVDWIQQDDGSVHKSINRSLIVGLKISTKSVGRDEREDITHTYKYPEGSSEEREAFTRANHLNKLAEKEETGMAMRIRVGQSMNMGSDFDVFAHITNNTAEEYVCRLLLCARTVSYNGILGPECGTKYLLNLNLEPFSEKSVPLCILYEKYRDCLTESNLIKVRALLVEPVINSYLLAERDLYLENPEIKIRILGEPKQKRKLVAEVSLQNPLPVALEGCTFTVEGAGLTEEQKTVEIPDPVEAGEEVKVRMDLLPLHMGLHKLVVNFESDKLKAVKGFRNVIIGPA
The experiment in a line: Inactivation of human tissue transglutaminase, fluorescence assay, IC50. The test is classed as biochemical. The note with it: Table 1; 5 min preincubation, 37° C. In outline: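 10 μg His6-rh-TG2 added to a pH 7.5 Tris/CaCl2/DTT/PEG8000 assay solution holding inhibitor, 5.56 mM glycine methyl ester and 50 μM Abz-APE(CAD-DNP)QEA-OH (pre-addition levels); 5 min at 37 °C before reading. Fluorescence λexc 313/λem 418 nm over 15 min; activity from slope, IC50 relative to DMSO control.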

The test system of another test is dog (Irish setter). The experiment in a line: In-vivo experiment in the Irish setter fed a wheat-containing diet. As to the method:
A 5 weeks old dog (Irish setter) was fed with a wheat-containing diet. […] By a jejunal biopsy a partial degradation of the intestinal villi and an increased number of intraepithelial lymphocytes were found.
This dog was fed before each meal with 75 mg/kg body weight transglutaminase inhibitor (1) in a acid-stable formulation. In the following a decrease of the diarrhea and an increase in body weight were observed.

A further test concerns the target T2, FXIII (Homo sapiens, UniProt P00488).
T2 sequence (P00488 1-732): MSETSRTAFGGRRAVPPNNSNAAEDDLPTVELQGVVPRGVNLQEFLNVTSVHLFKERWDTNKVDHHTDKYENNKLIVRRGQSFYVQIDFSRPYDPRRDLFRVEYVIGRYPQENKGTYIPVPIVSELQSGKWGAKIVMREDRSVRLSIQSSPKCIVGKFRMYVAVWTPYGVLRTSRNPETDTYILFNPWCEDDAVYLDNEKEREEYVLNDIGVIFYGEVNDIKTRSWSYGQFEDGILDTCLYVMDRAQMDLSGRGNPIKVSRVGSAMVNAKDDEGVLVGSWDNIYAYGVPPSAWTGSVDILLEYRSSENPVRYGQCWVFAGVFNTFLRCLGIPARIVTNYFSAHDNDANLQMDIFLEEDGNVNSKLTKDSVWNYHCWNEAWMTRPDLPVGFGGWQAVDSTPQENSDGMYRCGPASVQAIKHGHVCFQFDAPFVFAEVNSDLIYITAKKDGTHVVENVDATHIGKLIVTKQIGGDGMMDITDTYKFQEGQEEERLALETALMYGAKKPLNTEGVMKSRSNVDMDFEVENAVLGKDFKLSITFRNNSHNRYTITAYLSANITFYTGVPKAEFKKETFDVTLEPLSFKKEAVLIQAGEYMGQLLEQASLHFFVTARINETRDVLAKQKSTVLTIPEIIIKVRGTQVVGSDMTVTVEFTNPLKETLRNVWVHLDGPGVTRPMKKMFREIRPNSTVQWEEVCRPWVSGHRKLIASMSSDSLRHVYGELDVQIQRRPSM
The experiment in a line: Transglutaminase inhibition, IC50 at FXIII. The test is classed as biochemical. The note with it: Table 1.

Test [3] deals with biopsies from the lower duodenum of patients suffering from coeliac disease. The experiment in a line: Biopsy example 1: anti-TG2 ELISA of PT gliadin stimulated duodenal biopsies. The test is classed as cell-based, human. The note with it: 5 μM inhibitor, 30 min preincubation, then PT gliadin 1 mg/ml, 48 hrs; medium control 1.285, PT gliadin alone 2.144. As for the experimental part:
as §1
For preincubation, the transglutaminase inhibitor (1) in a final concentration of 5 μM was added to the biopsies and they were incubated for 30 min at a temperature of 37° C. in the incubator under gassing with CO2 (5%). Subsequently, stimulation with gliadin after peptic-tryptic digest (PT gliadin) used in a final concentration of 1 mg/ml was performed. PT gliadin was produced as described by Wieser and Belitz (Wieser H and Belitz HD (1992), Z Lebenm Unters Forsch 194: 229-234). The treatment with the proteases pepsin and trypsin simulates the digestion in the gastrointestinal tract. Thus the resulting gliadin peptides correspond to those which occur in the duodenum after the intake of cereal protein. The biopsies were then incubated for another 48 hrs in the incubator under the above conditions.
Controls were incubated with inhibitor-free medium and without or respectively with PT gliadin.
After 48 hrs, 50 μl samples were taken and analyzed by means of an anti-TG2 ELISA kit.
Background: ELISA stands for enzyme-linked immunosorbent assay.

[4] abbreviates: 75 mg/kg before each meal, after two months.
The mark [5] stands for this setting: 75 mg/kg body weight before each meal, acid-stable formulation.

As for `CCOC(=O)/C=C/CC[C@H](NC(=O)OCc1ccccc1)C(=O)N[C@H](C(=O)N1CCC[C@H]1C(=O)N[C@@H](CC(C)C)C(=O)OC)C(C)C` [Compound 1, N^α-benzyloxycarbonyl-{[(E)-(L)-6-amino-hept-2-ene-dicarboxylic acid]-1-ethanoyl}-L-valinyl-L-prolinyl-L-leucine methyl ester] (Cbz-[Nle(5E-ene,6-CO2Et)]VPL-OMe), in test [1] (after 24 hrs, PT gliadin alone 653 pg/ml), the interferon-γ value was 86 pg/mL. In test [1] (after 48 hrs, PT gliadin alone 1177 pg/ml), this molecule had an interferon-γ value of 426 pg/mL. For the same molecule, the concentration for half-maximal inhibition (IC50) in test [2] came out at 30 nM. Also, in the test with dog (Irish setter) (setting [4]), the “length of the intestinal villi (biopsy)” value is recorded as “normal length” and the “number of intraepithelial lymphocytes (biopsy)” value is on record as “significantly reduced”. Moreover, in the test on dog (Irish setter) (setting [5]), the body weight result is “increase” and the diarrhea entry is recorded as “decrease”. The IC50 against FXIII was over 50000 nM. Moreover, the “OD450 in the anti-TG2 ELISA (antibody concentration)” value in test [3] turned out to be 1.401.
